Data taken from the NIST ThermoML archive (doi:10.1016/j.jct.2013.08.021).

Conditions: for viscosity / speed of sound / mass density: 101 kPa, Liquid; for viscosity: Capillary tube (Ostwald / Ubbelohde) method; for speed of sound: Sing-around technique in a fixed-path interferometer; for mass density: Vibrating tube method

CCC[N+]1(C)CCCC1.O=S(=O)([N-]S(=O)(=O)C(F)(F)F)C(F)(F)F
Conditions	mass density [kg/m3]	speed of sound [m/s]	viscosity [mPa·s]
293.15 K	1432.42	1281.9	66.61
298.15 K	1427.86	1270.6	49.35
303.15 K	1423.37	1259	38.52
308.15 K	1418.86	1249.1	30.93
313.15 K	1414.37	1238.2	26.17
318.15 K	1409.9	1227.4	22.39
323.15 K	1405.45	1216.9	19.31
328.15 K	1401.01	1205.9	17.13
333.15 K	1396.59	1196.4	15.07
338.15 K	1392.17	1186.3	13.36
343.15 K	1387.77	1176.2	11.93

Conditions	Normal melting temperature [°C]
Crystal, DTA	11.00
